Results published in patent US12291501B2 (University of Florida Research Foundation, Inc., priority 2021, dated 2025).
Where “and” joins values, the source holds several entries; their conditions need not be identical. Equal entries are not always repeated. Entries after “also recorded” stand apart in the source; their conditions may differ.

Tests used:
Format in all cases: cell-based
α3β4 nAChR = target: T1, α3β4 nAChR (Homo sapiens, UniProt P30926+P32297); assay: Inhibition of control ACh responses by co-application, α3β4 nAChR in oocytes; settings: 3 μM compound co-applied with ACh; fraction of control ACh response
T1 construct: expressed in transfected cells; host or cells: Xenopus laevis oocytes
Method: (§1) Initial profiling against heteromeric receptors: The test compounds for their ability to activate or inhibit other nAChR subtypes were evaluated. Agonist activity was evaluated by applying the compounds at 100 or 30 μM to human α4β2 and α3β4 as well as to mouse muscle α1β1εδ nAChR expressed in Xenopus oocytes. […] The inhibitory activity was generally low (Table 3).
(§2) Molecular Biology: Plasmid DNAs encoding the human α7 and heteromeric nAChR were obtained from Jon Lindstrom (University of Pennsylvania, Philadelphia, PA). Mouse muscle subunit clones were obtained from Jim Boulter (Salk Institute, La Jolla CA) and Paul Gardner (Dartmouth, Hanover NH). The human resistance-to-cholinesterase 3 ([…]) clone was obtained from Millet Treinin (Hebrew University, Jerusalem, Israel) and RNA co-injected with α7 to improve the level and speed of receptor expression without affecting their pharmacological properties. Plasmid DNA encoding the human α10 nAChR was obtained from J. Michael McIntosh. Plasmid DNA encoding the human α9 nAChR and the human receptor-associated protein of the synapse (RAPSYN) with codon optimization for expression in Xenopus laevis were obtained from Katrin Richter. RAPSYN RNA was co-injected with the α9 and α10 to improve expression (Richter et al., (2022) Front. Cell Neurosci. 16: 779081). After linearization and purification of the plasmid DNAs, RNAs were prepared using the mMessage mMachine in vitro RNA transcription kit (Ambion, Austin, TX). Frogs were maintained in the Animal Care Service facility of the University of Florida, and all procedures were approved by the University of Florida Institutional Animal Care and Use Committee (approval number 202002669). In brief, the animals were first anesthetized for 15-20 min in 1.5 l frog tank water containing 1 g of MS-222 buffered with sodium bicarbonate. Oocytes were obtained surgically from mature female Xenopus laevis (Nasco, Ft. Atkinson WI, USA) and treated with 1.4 mg/ml type 1 collagenase (Worthington Biochemicals, Freehold NJ, USA) for 2-4 h at rt in Ca2+-free Barth's solution (88 mM NaCl, 1 mM KCl, 2.38 mM NaHCO3, 0.82 mM MgSO4, 15 mM HEPES, and 12 mg/l tetracycline, pH 7.6) to remove the ovarian tissue and the follicular layers. Stage V oocytes were injected with 4-6 ng CHRNA7 RNA and 2-3 ng RIC3 RNA (2:1 ratio) in 50 nl water, or with 12 ng CHRNA9 RNA and 3 ng RAPSN RNA, or along with 12 ng CHRNA10 RNA in 50 nl water. Oocytes were maintained in Barth's solution containing 0.32 mM Ca(NO3)2 and 0.41 mM CaCl2, and recordings were conducted 2-20 days after injection.
(§3) Electrophysiology: Two-electrode voltage-clamp experiments were conducted using OpusXpress 6000A (Molecular Devices, Union City CA, USA). Both the voltage and current electrodes were filled with 3 M KCl. Oocytes were voltage-clamped at −60 mV at rt. The oocytes were perfused with Ringer's solution (115 mM NaCl, 2.5 mM KCl, 1.8 mM CaCl2, 10 mM HEPES, 1 μM atropine, pH 7.2) at 2 ml/min. […] Drug applications were 12 s in duration followed by 181 s washout periods.
(§4) The responses were calculated as both peak-current amplitudes and net charge. Data were collected at 50 Hz, filtered at 20 Hz, and analyzed by Clampfit (Molecular Devices) and Excel (Microsoft, Redmond, WA, United States). Data are expressed as means±SEM from at least five oocytes for each experiment and plotted with Kaleidagraph 4.5.2 (Abelbeck Software, Reading, PA, United States). Each episode of data acquisition was a total of 210 s and included an initial 30 s period used to define the baseline for the drug-evoked responses. After 30 s, drugs were applied, and the following 120 s were defined as the drug response period for analysis. […] The values for the curve fits were generated using the Levenberg-Marquardt algorithm to obtain the best Chi-Square fit to the Hill equation using the Kaleidagraph 4.5.2 plotting program. The errors in the tables are the calculated standard errors of the fit parameters based on the goodness of fit.

α4β2 nAChR = target: T2, α4β2 nAChR (Homo sapiens, UniProt P17787+P43681); assay: Inhibition of control ACh responses by co-application, α4β2 nAChR in oocytes; settings: 3 μM compound co-applied with ACh; fraction of control ACh response
T2 construct: expressed in transfected cells; host or cells: Xenopus laevis oocytes
Method: as §1, §2, §3, §4

α7 nAChR [1] = target: T3, α7 nAChR (Homo sapiens, UniProt P36544); assay: α7 responses to drugs co-applied with the PAM PNU-120596 (silent agonism); settings: for Response co-applied with PNU-120596, normalized to ACh co-applied with PNU-120596: drug 30 μM + 10 μM PNU-120596, normalized to 30 μM ACh + 10 μM PNU-120596
T3 construct: expressed in transfected cells; host or cells: Xenopus laevis oocytes, injected with in vitro transcribed RNA
Text: (§5) Molecular Biology: Plasmid DNAs encoding the human α7 and heteromeric nAChR were obtained from Jon Lindstrom (University of Pennsylvania, Philadelphia, PA). Mouse muscle subunit clones were obtained from Jim Boulter (Salk Institute, La Jolla CA) and Paul Gardner (Dartmouth, Hanover NH). […] Plasmid DNA encoding the human α10 nAChR was obtained from J. Michael McIntosh. Plasmid DNA encoding the human α9 nAChR and the human receptor-associated protein of the synapse (RAPSYN) with codon optimization for expression in Xenopus laevis were obtained from Katrin Richter. […] After linearization and purification of the plasmid DNAs, RNAs were prepared using the mMessage mMachine in vitro RNA transcription kit (Ambion, Austin, TX). […] Oocytes were maintained in Barth's solution containing 0.32 mM Ca(NO3)2 and 0.41 mM CaCl2, and recordings were conducted 2-20 days after injection.
(§6) Electrophysiology: Two-electrode voltage-clamp experiments were conducted using OpusXpress 6000A (Molecular Devices, Union City CA, USA). Both the voltage and current electrodes were filled with 3 M KCl. Oocytes were voltage-clamped at −60 mV at rt.
as §4

α1β1εδ nAChR = target: T4, α1β1εδ nAChR (Mus musculus, UniProt P02716+P04756+P09690+P20782); assay: Inhibition of control ACh responses by co-application, muscle α1β1εδ nAChR in oocytes; settings: 3 μM compound co-applied with ACh; fraction of control ACh response
T4 construct: expressed in transfected cells; host or cells: Xenopus laevis oocytes
Method: as §1, §2, §3, §4

α9α10 nAChR = target: T5, α9α10 nAChR (Homo sapiens, UniProt Q9GZZ6+Q9UGM1); assay: Two-electrode voltage-clamp, agonist concentration-response, α9α10 nAChR in Xenopus oocytes; settings: for EC50 / α9α10 Imax: peak currents, ± standard error of fit; for α9α10 Imax: relative to ACh (Imax = 1)
T5 construct: expressed in transfected cells; host or cells: Xenopus laevis oocytes, injected with in vitro transcribed RNA
Text: (§7) Electrophysiology: Xenopus oocytes were microinjected with RNAs to produce functional nAChR which were characterized by two-electrode voltage-clamp measurements. FIGS. 5A-7D present concentration-response curves for the new compounds evaluated with α7, α9, and α9α10 receptors. Table 1 presents the values for Imax and EC50 with these receptors and Table 2 summarizes inhibition data for the compounds with heteromeric nAChR.
as §2, §3
as §4, with “The errors in the tables are the calculated standard errors of the fit parameters based on the goodness of fit.” left out

α9 nAChR = target: T6, α9 nAChR (Homo sapiens, UniProt Q9UGM1); assay: Two-electrode voltage-clamp, agonist concentration-response, α9 nAChR in Xenopus oocytes; settings: for EC50 / α9 Imax: peak currents, ± standard error of fit; for α9 Imax: relative to ACh (Imax = 1)
T6 construct: expressed in transfected cells; host or cells: Xenopus laevis oocytes, injected with in vitro transcribed RNA
Text: as §7, §2, §3
as §4, with “The errors in the tables are the calculated standard errors of the fit parameters based on the goodness of fit.” left out

α7 nAChR [2] = target: T3, α7 nAChR; assay: Two-electrode voltage-clamp, agonist concentration-response, α7 nAChR in Xenopus oocytes; settings: for EC50 / α7 Imax: net charge, ± standard error of fit; for α7 Imax: relative to ACh (Imax = 1)
Text: as §7, §5, §6, §4

[3] = 3e vs larger ammonium analogs, 3h relative to 3g

T4 sequence (P04756 21-457): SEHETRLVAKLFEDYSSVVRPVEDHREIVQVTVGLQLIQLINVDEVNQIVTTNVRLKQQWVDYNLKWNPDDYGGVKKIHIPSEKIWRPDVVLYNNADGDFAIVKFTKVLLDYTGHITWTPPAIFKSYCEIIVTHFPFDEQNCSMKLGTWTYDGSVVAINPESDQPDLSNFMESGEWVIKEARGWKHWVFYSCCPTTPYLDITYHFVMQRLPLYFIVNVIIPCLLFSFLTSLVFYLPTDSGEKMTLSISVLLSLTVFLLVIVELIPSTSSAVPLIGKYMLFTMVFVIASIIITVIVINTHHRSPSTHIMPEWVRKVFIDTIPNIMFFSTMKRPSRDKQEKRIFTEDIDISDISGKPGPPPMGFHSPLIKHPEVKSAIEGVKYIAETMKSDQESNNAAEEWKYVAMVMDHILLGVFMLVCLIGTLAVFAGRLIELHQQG
T4 sequence (P09690 24-501): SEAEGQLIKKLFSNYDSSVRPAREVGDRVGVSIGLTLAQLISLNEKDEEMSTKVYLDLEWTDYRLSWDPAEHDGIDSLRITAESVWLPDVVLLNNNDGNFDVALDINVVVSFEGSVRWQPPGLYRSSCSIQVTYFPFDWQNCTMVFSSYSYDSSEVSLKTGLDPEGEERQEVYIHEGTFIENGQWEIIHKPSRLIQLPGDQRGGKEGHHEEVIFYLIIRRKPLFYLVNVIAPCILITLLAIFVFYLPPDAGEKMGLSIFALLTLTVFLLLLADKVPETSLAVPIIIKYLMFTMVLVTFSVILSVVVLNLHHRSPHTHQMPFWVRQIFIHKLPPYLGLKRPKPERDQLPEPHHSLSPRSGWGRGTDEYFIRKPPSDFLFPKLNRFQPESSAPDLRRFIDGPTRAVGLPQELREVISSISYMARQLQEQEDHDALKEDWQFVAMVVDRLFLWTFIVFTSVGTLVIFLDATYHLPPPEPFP
T4 sequence (P20782 21-493): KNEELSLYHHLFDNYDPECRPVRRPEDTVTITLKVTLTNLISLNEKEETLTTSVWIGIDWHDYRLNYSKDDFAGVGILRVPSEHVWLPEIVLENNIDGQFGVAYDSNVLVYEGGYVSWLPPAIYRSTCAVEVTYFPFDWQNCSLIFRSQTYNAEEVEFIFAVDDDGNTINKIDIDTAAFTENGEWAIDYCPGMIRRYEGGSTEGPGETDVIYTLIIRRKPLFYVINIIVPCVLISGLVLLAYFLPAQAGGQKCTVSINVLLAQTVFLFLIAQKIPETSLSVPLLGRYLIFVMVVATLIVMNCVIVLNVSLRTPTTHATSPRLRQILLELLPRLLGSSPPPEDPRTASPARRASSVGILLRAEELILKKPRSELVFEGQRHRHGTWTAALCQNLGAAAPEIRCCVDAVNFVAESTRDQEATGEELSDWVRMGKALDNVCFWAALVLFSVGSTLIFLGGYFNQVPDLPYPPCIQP
T4 sequence (P02716 25-520): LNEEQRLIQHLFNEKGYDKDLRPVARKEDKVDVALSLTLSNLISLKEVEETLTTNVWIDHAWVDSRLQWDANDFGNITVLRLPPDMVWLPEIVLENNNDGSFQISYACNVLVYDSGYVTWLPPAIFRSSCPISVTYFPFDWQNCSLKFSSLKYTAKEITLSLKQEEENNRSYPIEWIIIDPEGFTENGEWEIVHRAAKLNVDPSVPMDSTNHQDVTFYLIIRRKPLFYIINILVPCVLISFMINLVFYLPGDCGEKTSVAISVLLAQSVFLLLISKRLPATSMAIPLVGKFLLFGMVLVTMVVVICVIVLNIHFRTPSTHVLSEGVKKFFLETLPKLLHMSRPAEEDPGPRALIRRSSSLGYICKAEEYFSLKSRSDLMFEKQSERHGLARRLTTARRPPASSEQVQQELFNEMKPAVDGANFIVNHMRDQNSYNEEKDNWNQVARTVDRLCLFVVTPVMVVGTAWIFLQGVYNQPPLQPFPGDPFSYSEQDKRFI
T2 sequence (P43681 29-627 limits assumed): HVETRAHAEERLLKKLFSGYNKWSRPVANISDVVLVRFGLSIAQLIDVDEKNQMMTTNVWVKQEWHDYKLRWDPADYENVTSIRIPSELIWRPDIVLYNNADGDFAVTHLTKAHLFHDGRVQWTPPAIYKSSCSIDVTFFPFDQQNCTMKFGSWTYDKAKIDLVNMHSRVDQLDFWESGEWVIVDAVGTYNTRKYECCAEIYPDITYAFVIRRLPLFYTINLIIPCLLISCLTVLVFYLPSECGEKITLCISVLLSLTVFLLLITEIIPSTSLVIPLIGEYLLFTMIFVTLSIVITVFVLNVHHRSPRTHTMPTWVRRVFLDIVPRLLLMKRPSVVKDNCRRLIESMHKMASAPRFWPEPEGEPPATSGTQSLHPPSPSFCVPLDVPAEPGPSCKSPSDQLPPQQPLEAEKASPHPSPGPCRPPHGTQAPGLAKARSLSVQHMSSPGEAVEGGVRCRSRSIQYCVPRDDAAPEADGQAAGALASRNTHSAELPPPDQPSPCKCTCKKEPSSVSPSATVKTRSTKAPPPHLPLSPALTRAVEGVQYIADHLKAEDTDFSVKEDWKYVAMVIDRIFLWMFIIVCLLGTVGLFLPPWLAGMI
T2 sequence (P17787 26-502): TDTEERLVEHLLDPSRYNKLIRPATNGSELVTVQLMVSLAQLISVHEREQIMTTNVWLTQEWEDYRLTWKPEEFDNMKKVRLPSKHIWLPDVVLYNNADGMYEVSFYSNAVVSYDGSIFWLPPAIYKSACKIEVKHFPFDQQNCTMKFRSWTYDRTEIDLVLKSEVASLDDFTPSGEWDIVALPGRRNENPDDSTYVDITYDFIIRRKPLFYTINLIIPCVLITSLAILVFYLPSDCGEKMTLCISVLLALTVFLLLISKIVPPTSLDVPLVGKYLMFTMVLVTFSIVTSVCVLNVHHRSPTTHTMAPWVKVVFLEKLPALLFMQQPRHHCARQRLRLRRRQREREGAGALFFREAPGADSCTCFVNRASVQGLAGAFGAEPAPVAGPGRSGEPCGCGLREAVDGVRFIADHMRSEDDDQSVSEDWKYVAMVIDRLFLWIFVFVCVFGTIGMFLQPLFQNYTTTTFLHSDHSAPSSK
T1 sequence (P32297 32-505): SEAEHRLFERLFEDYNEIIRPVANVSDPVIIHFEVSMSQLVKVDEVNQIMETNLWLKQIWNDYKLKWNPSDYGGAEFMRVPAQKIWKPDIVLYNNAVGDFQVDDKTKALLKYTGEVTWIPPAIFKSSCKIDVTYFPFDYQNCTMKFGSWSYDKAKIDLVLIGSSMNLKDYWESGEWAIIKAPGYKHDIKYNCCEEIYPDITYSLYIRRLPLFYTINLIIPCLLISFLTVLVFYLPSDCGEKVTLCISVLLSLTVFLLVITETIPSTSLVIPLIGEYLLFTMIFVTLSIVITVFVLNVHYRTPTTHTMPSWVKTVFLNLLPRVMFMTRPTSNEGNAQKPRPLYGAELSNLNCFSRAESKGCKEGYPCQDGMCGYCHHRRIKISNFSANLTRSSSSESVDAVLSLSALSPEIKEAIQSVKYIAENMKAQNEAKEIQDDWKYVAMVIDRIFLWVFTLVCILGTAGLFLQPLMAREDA
T1 sequence (P30926 22-498): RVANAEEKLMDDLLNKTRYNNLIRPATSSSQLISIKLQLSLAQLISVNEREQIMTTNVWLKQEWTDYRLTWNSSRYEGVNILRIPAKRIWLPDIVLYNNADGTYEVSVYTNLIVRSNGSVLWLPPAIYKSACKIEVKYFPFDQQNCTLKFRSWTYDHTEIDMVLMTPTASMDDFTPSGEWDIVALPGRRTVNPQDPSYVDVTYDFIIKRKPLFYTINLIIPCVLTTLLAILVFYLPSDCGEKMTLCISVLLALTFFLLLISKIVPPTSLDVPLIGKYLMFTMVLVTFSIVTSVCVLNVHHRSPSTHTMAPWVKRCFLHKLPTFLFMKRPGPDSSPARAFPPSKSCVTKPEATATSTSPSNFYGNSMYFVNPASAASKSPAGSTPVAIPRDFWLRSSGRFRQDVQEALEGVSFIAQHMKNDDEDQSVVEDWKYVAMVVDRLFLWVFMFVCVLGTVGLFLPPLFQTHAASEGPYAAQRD
T5 sequence (Q9UGM1 26-479 limits assumed): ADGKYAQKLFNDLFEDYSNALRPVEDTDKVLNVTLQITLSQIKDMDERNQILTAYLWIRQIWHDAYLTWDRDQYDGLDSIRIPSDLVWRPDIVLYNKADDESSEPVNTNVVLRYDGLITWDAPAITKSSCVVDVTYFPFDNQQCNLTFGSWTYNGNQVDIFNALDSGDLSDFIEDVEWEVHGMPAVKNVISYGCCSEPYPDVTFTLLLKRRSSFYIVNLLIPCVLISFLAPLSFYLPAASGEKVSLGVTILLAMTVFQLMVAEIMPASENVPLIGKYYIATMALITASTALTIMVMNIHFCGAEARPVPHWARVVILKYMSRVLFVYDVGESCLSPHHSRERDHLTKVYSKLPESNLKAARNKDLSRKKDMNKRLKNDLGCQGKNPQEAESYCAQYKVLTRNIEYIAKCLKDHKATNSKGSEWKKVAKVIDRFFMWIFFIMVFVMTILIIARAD
T5 sequence (Q9GZZ6 25-450): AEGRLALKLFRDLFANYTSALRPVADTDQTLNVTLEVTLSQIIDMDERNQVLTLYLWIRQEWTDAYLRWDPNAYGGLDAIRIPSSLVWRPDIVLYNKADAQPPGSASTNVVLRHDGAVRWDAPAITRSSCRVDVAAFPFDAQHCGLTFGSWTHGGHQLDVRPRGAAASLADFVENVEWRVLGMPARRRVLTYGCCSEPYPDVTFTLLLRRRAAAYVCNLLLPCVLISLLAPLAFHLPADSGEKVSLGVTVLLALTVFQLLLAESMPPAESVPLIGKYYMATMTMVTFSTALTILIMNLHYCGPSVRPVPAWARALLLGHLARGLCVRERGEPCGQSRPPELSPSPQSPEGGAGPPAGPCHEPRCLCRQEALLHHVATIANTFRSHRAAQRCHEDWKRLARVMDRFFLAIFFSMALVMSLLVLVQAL
T6 sequence (Q9UGM1 26-479 limits assumed): as the sequence (Q9UGM1 26-479 limits assumed) above

| Compound | Effect of co-application on the control ACh responses, α3β4 (α3β4 nAChR) | Effect of co-application on the control ACh responses, α4β2 (α4β2 nAChR) | Response co-applied with PNU-120596 relative to the ACh controls (α7 nAChR [1]; 30 μM compound + 10 μM PNU-120596, relative to ACh alone controls) [times] | Response co-applied with PNU-120596, normalized to ACh co-applied with PNU-120596 (α7 nAChR [1]) | Effect of co-application on the control ACh responses, α1β1εδ (α1β1εδ nAChR) | Agonist character / efficacy at α9α10 (α9α10 nAChR) | EC50 (α9α10 nAChR) [µM] | α9α10 Imax (α9α10 nAChR) | Agonist character / efficacy at α9 (α9 nAChR) | EC50 (α9 nAChR) [µM] | α9 Imax (α9 nAChR) | Agonist character / efficacy at α7 (α7 nAChR [2]) | EC50 (α7 nAChR [2]) [µM] | α7 Imax (α7 nAChR [2]) | Fold loss of potency at α9α10 relative to comparator compound (α9α10 nAChR; [3]) | Fold loss of potency at α9 relative to comparator compound (α9 nAChR; [3]) |
| --- | --- | --- | --- | --- | --- | --- | --- | --- | --- | --- | --- | --- | --- | --- | --- | --- |
| CC[N+]1(CC)CCN(c2ccc(-n3cccc3)cc2)CC1.[I-] [Compound 3i, 4-(4-(1H-pyrrol-1-yl)phenyl)-1,1-diethylpiperazin-1-ium iodide] | 0.387 ± 0.057 | 0.709 ± 0.086 | ~2 | 0.08 | 0.691 ± 0.094 | weakened partial agonist | 1.5 ± 0.6 | 0.17 ± 0.01 | reduced efficacy; also recorded: weakened partial agonist | 1.12 ± 0.25 | 0.27 ± 0.01 | reduced efficacy | 27 ± 4 | 0.041 ± 0.002 and 0.041 | – | – |
| CC[N+]1(C)CCN(c2ccc(C(=O)Nc3cccc(C)n3)cc2)CC1.[I-] [Compound 3f, 1-ethyl-1-methyl-4-(4-((6-methylpyridin-2-yl)carbamoyl)phenyl)piperazin-1-ium iodide] | 0.849 ± 0.018 | 0.858 ± 0.045 | – | 0.13 | 0.413 ± 0.070 | – | – | 0.92±0.04 | full agonist | – | 1.19±0.03 | – | 4.3 to 6.4 | 0.40 ± 0.02 and 0.4 | – | – |
| CC[N+]1(CC)CCN(c2ccc(C(=O)Nc3cccc(C)c3)cc2)CC1.[I-] [Compound 3d, 1,1-diethyl-4-(4-(m-tolylcarbamoyl)phenyl)piperazin-1-ium iodide] | 1.039 ± 0.015 | 0.807 ± 0.048 | – | 0.17 | 0.555 ± 0.060 | – | 0.61 ± 0.08 | 1.12 ± 0.03 | – | 1.28 ± 0.62 | 1.25 ± 0.14 | partial agonists | 1.3 ± 0.1 | 0.60 ± 0.02 and 0.6 | – | – |
| CCCNC(=O)c1ccc(N2CC[N+](CC)(CC)CC2)cc1.[I-] [Compound 3b, 1,1-diethyl-4-(4-(propylcarbamoyl)phenyl)piperazin-1-ium iodide] | 0.650 ± 0.039 | 0.946 ± 0.032 | – | 0.19 | 0.709 ± 0.086 | – | 11 ± 6 | 0.79 ± 0.13 | – | 9 ± 6 | 1.13 ± 0.15 | – | 280 ± 240 | 0.38 ± 0.09 and 0.38 | – | – |
| Cc1cccc(NC(=O)c2ccc(N3CC[N+](C)(C)CC3)cc2)n1.[I-] [Compound 3e, 1,1-dimethyl-4-(4-((6-methylpyridin-2-yl)carbamoyl)phenyl)piperazin-1-ium iodide] | 0.838 ± 0.037 | 0.912 ± 0.038 | – | 0.16 | 0.709 ± 0.091 | fully efficacious agonist | 4.2 ± 1.5 | 0.89 ± 0.07 | partial agonist | 7 ± 6 | 0.51 ± 0.07 | – | 4.3 ± 1 | 0.57 ± 0.03 and 0.57 | about 10 fold | about 10 fold |
